In patent US6544727B1, “Methods and devices for the removal of psoralens from blood products” (Cerus Corporation, priority 1995, dated 2003):
Where two headings read alike, the source gives them in different places.

Experiments:
[1] = test system: Salmonella tester strain TA102; test: Ames test, strain TA102
Procedure: (§1) In this example the compounds of the present invention are tested for their dark mutagenicity using an Ames assay. The procedures used for the Salmonella mutagenicity test as described in detail by Maron and Ames were followed exactly. Maron, D. M. and B. N. Ames, Mutation Research 113: 173 ( 1983). A brief description for each procedure is given here. The tester strains TA97a, TA98, TA100, TA102, TA1537 and TA1538 were obtained from Dr. Ames. TA97a, TA98, TA1537 and TA1538 are frameshift tester strains. TA100 and TA102 are base-substitution tester strains. Upon receipt each strain was cultured under a variety of conditions to confirm the genotypes specific to the strains.
(§2) The first tests done with the strains were to determine the range of spontaneous reversion for each of the strains. With each mutagenicity experiment the spontaneous reversion of the tester strains to histidine independence was measured and expressed as the number of spontaneous revertants per plate. This served as the background controls.
(§3) For all experiments, the pre-incubation procedure was used. In this procedure one vial of each tester strain was thawed and 20 μL of this culture was added to 6 mL of Oxoid Nutrient Broth #2. This solution was allowed to shake for 10 hours at 37° C. In the pre-incubation procedure, 0.1 mL of this overnight culture was added to each of the required number of sterile test tubes. To half of the tubes 0.5 mL of a 10% S-9 solution containing Aroclor 1254 induced rat liver extract (Molecular Toxicology Inc., Annapolis, Md.), and MgCl2, KCl, glucose-6-phosphate, NADP, and sodium phosphate buffer (Sigma, St. Louis, Mo.) were added. To the other half of the tubes 0.5 mL of 0.2M sodium phospate buffer, pH 7.4, was used in place of the S-9 mixture (the—S9samples). Finally 0.1 mL of the test solution containing either 0, 0.1, 0.5, 1, 5, 10, 50, 100, 250, or 500 μg/mL of the test compound was added. The 0.7 mL mixture was vortexed and then pre-incubated while shaking for 20 minutes at 37° C. After shaking, 2 mL of molten top agar supplemented with histidine and biotin were added to the 0.7 mL mixture and immediately poured onto a minimal glucose agar plate (volume of base agar was 20 mL). The top agar was allowed 30 minutes to solidify and then the plates were inverted and incubated for 44 hours at 37° C. After incubation the number of revertant colonies on each plate were counted. […] (“n” represents the number of replicates performed for each data point.)

[2] = test system: Chinese hamster ovary (CHO) cells; test: In vitro genotoxicity screen in CHO cells; conditions: approximately 3 hours exposure in the dark
Source text: In such studies, cells are exposed to chemicals with and/or without rat S-9 metabolic activation system (S-9) and are later examined for either cell survival (for a genotoxicity screen) or for changes in chromosome structure (for a chromosome aberration assay).
Chinese hamster ovary (CHO; ATCC CCL 61 CHO-K1, proline-requiring) cells were used for the in vitro genotoxicity and chromosomal aberration tests. CHO cells are used extensively for cytogenic testing because they have a relatively low number of chromosomes (2n=20) and a rapid rate of multiplication (˜12 to 14 hours, depending on culture conditions). The cells were grown in an atmosphere of 5% CO2 at approximately 37° C. in McCoy's 5a medium with 15% fetal bovine serum (FBS), 2 mM L-glutamine, and 1% penicillin-streptomycin solution to maintain exponential growth. This medium was also used during exposure of the cells to the test compound when no S-9 was used. Cell cultures were maintained and cell exposures were performed in T-75 or T-25 flasks.
Each of the sample compounds were tested at seven dilutions, 1, 3, 10, 33, 100, 333, and 1000 μg/ml. […]
After approximately 2.5 hours in colchicine, the cells were harvested. […] The cell density and metaphase quality on the initial slide from each flask was monitored using a phase-contrast microscope; at least two slides of appropriate cell density were prepared from each flask. […]

[3] = test system: Salmonella tester strain TA1538
Procedure: as §1, §2, §3

[4] = test system: H9 cells chronically infected with HIVIIIB; test: Inactivation of cell-associated HIV in platelet concentrate, HIV microplaque assay; type: cell-based; conditions: for log inactivation of HIV, dark control: 150 μM psoralen, no UVA; for logs of HIV inactivated: 150 μM, 3 Joules/cm^2, cell-associated HIV in platelet concentrate
Procedure: H9 cells chronically infected with HIVIIIB were used. (H9/HTLV-III-B NIH 1983 Cat.#400). Cultures of these cells were maintained in high glucose Dulbecco Modified Eagle Medium supplemented with 2 mM L-glutamine, 200 u/mL penicillin, 200 μg/ml streptomycin, and 9% fetal bovine serum (Intergen Company, Purchase, N.Y.) For maintenance, the culture was split once a week, to a density of 3×10^5 to 4×10^5 cells/ml and about four days after splitting, 3.3% sodium bicarbonate was added as needed. For the inactivation procedure, the cells were used three days after they were split. They were pelleted from their culture medium at 400 g×10 minutes, the supernatant was discarded, and the cells were resuspended in one to five day old human platelet concentrate (PC) (pH 7.5-6.5), to a concentration of 2×10^6 cells/ml. Aliquots of the PC-infected cell suspension were made for psoralen free dark controls, for psoralen free UVA only controls, for psoralen dark controls, and for the psoralen plus UVA experimental sample. Concentrated filter-sterilized stock solutions of each psoralen in water were diluted into the appropriate aliquots to yield a final concentration of 150 μM. […] After an equilibration period of thirty minutes at room temperature, 0.5 ml of each of the dark controls was placed in a cryovial and stored in the dark at −80° C. For UVA illumination, 8 ml of the psoralen free aliquot and 8 ml of each psoralen containing aliquot were introduced into a modified Fl 20 Teflon™ bag (modified to be 92 cm^2 total surface area, The West Co., Phoenixvill, Pa.) via a plastic disposable 10 ml syringe attached to one of the polypropylne ports on the bag. This gave an average path length of 0.17 cm. The bags were then illuminated for a total exposure of 3 Joules/cm^2 in the device described in Example 1, above, attached to a circulating refrigerating water bath set at 4° C., which maintains the temperature in the bag at approximately 22-25° C. During exposure, the device was shaken on a platelet shaker (Helmer Labs, Noblesville, Ind.). After exposure, the contents of the bags were withdrawn by a fresh syringe through the remaining unused port on the bag, and placed in cryovials for storage in the dark at −80° C. until analysis.
The stored samples were thawed at 37° C., then titrated in an HIV microplaque assay, as described in Hanson, C. […] Clot removal from each sample was performed before plating.

[5] = test system: platelets; test: Partitioning of S-59 in platelet concentrate before and after UVA illumination; type: in vitro ADME; conditions: % of the original S-59, after UVA
Source text: During the UVA illumination process, S-59 undergoes a photochemical reaction to form several low molecular weight photoproducts in addition to associating with macromolecules in both the platelet and the plasma fractions. […] This fraction of low molecular weight photoproducts is removed during the scrub process, and their removal can be monitored both by HPLC and by radioactivity measurement using ^3H-labeled S-59.
The S-59 which is not amenable to removal by the scrub/capture process can also be monitored using ^3H-labeled S-59.

[6] = test system: platelets; test: S-59 uptake by platelets and effect of pre-incubation on adsorption kinetics (Example 23); type: in vitro ADME, human; conditions: FIG. 25A
Procedure: As discussed previously, S-59 uptake by platelets can occur over a period of several hours before saturation occurs. FIG. 25A graphically depicts S-59 (Co=50 μM) uptake by platelets over time (top) and S-59 release by platelets over time (bottom). As shown in the top graph, S-59 equilibrium is achieved at approximately two hours.
This example is directed to the question of whether partitioning of S-59 into platelets has a significant effect on adsorption kinetics. The adsorption kinetics of PC pre-incubated with S-59 for 24 hours prior to adsorption were compared to adsorption kinetics in PC without a pre-incubation period. […] Samples of PC were removed at various time points and analyzed for levels of residual S-59.

[7] = Residual S-59 and photoproducts D and E in fresh frozen plasma after batch RD (Tables R, T); type: physicochemical, human
Procedure: Samples taken from each bag after a 1-hour incubation were analyzed for S-59 and photoproduct removal. The results (n=7) for residual S-59 and photoproducts D and E (two of primary photoproducts formed during illumination, as described above) are presented in Table R (ND=not detectable; 1 hour incubation).
The experiments were performed in the manner described above.

SMILES: Cc1oc2c(C)c3oc(=O)cc(C)c3cc2c1CN [AMT, 4′-Aminomethyl-4,5′,8-trimethylpsoralen, reference compound]
- revertant colonies per plate ([1]; TA102 + S9, 0.1 μg/plate): −20
- revertant colonies per plate ([1]; TA102 + S9, 0.5 μg/plate): 5
- revertant colonies per plate ([1]; TA102 + S9, 1 μg/plate): −17
- revertant colonies per plate ([1]; TA102 + S9, 5 μg/plate): 51
- revertant colonies per plate ([1]; TA102 − S9, 0.1 μg/plate): 27
- revertant colonies per plate ([1]; TA102 − S9, 0.5 μg/plate): 47
- revertant colonies per plate ([1]; TA102 − S9, 1 μg/plate): 88
- revertant colonies per plate ([1]; TA102 − S9, 5 μg/plate): 266
- concentration at which the compound was genotoxic (toxic dose) [2]: 30 µg/mL

SMILES: Cc1oc2c(C)c3oc(=O)cc(C)c3cc2c1CNCCCCN [Compound 6, 4′-(6-amino-2-aza)hexyl-4,5′,8-trimethylpsoralen]
- revertant colonies per plate ([3]; TA1538 + S9, 50 μg/plate): 24
- revertant colonies per plate ([3]; TA1538 + S9, 100 μg/plate): −2
- revertant colonies per plate ([3]; TA1538 + S9, 250 μg/plate): −38
- revertant colonies per plate ([3]; TA1538 − S9, 50 μg/plate): 2
- revertant colonies per plate ([3]; TA1538 − S9, 100 μg/plate): −18
- concentration at which the compound was genotoxic (toxic dose) [2]: 100 µg/mL

SMILES: Cc1cc(=O)oc2c(C)c3oc(COCCN)c(C)c3cc12 [Compound 18, 5′-(4-amino-2-oxa)butyl-4,4′,8-trimethylpsoralen]
- log inactivation of HIV, dark control [4]: 0 logs
- logs of HIV inactivated [4]: > 7.2 logs

SMILES: Cc1oc2c(C)c3oc(=O)cc(C)c3cc2c1COCCN [Compound 2, 4′-(4-amino-2-oxa)butyl-4,5′,8-trimethylpsoralen]
- revertant colonies per plate ([3]; TA1538 + S9, 5 μg/plate): 2
- revertant colonies per plate ([3]; TA1538 + S9, 10 μg/plate): 4
- revertant colonies per plate ([3]; TA1538 − S9, 5 μg/plate): −8
- revertant colonies per plate ([3]; TA1538 − S9, 10 μg/plate): −13
- log inactivation of HIV, dark control [4]: 0 logs
- logs of HIV inactivated [4]: > 6.7 logs
- photo-reaction products of S-59 [5]: 40-50%
- time to S-59 uptake equilibrium in platelets [6]: approximately two
- residual S-59 in fresh frozen plasma ([7]; RD with […] g Dowex XUS 43493, approximately one hour incubation): ≤ 0.75 µM
- Concentration in plasma, Pre-Removal ([7]; Table R, 150 μM S-59 in plasma after 3 J/cm^2 UVA, before RD): 83.30 µM
- Concentration in plasma, Pre-removal (±SD) ([7]; Table T, 150 μM S-59 in plasma after 3 J/cm^2 UVA, before RD): 88.7 ± 4.1 µM
